{
  "source": "paper PMC2858699",
  "about": "“Proteolysis of Human Thrombin Generates Novel Host Defense Peptides” (PLoS Pathogens, 2010)",
  "key": {"[1]": {"tested_on": "P. aeruginosa Clinical isolate 27.1", "format": "cell-based", "procedure": "(§1) MIC assay was carried out by a microtiter broth dilution method as previously described in the NCSLA guidelines. Hemolysis, MTT, and LDH assays were performed as previously described (See Text S1).\n(§2) MIC assay was carried out by a microtiter broth dilution method as previously described in the NCSLA guidelines (Wiegand, I., Hilpert, K. & Hancock, R.E. Agar and broth dilution methods to determine the minimal inhibitory concentration (MIC) of antimicrobial substances. Nat Protoc 3, 163-175 (2008)). In brief, fresh overnight colonies were suspended to a turbidity of 0.5 units and further diluted in Mueller-Hinton broth (Becton Dickinson). […] Ten µl of each concentration was added to each corresponding well of a 96-well microtiter plate (polypropylene, Costar Corp.) and 90 µl of bacteria (1x10^5) in MH medium added. The plate was incubated at 37 °C for 16-18 h. MIC was taken as the lowest concentration where no visual growth of bacteria was detected.\n(§3) Table S2. […] The analysis was performed as described in Wiegand et al. and according to NCSLA guidelines. Additional clinical isolates were obtained from the Department of Bacteriology, Lund University Hospital. P. aeruginosa, E. coli and E. faecalis isolates were initially derived from patients with chronic ulcers, S. aureus from patients with atopic dermatitis. The S. pyogenes strain AP1 was from the WHO Collaborating Center for References and Research on Streptococci (Prague, Czech Republic)."}, "[2]": {"tested_on": "P. aeruginosa Clinical isolate 13.2", "format": "cell-based", "procedure": "as §1, §2, §3"}, "[3]": {"tested_on": "E. coli Clinical isolate 37.4", "format": "cell-based", "procedure": "as §1, §2, §3"}, "E. coli ATCC 25922 [4]": {"tested_on": "E. coli ATCC 25922", "format": "cell-based", "procedure": "as §1, §2, §3"}, "[5]": {"tested_on": "S. aureus Clinical isolate 16065", "format": "cell-based", "procedure": "as §1, §2, §3"}, "[6]": {"tested_on": "P. aeruginosa Clinical isolate 51.1", "format": "cell-based", "procedure": "as §1, §2, §3"}, "[7]": {"tested_on": "E. coli Clinical isolate 47.1", "format": "cell-based", "procedure": "as §1, §2, §3"}, "[8]": {"tested_on": "S. aureus Clinical isolate 14312", "format": "cell-based", "procedure": "as §1, §2, §3"}, "[9]": {"tested_on": "S. aureus Clinical isolate 1086", "format": "cell-based", "procedure": "as §1, §2, §3"}, "[10]": {"tested_on": "P. aeruginosa Clinical isolate 18488", "format": "cell-based", "procedure": "as §1, §2, §3"}, "S. aureus FDA 486": {"tested_on": "S. aureus FDA 486", "format": "cell-based", "procedure": "as §1, §2, §3"}, "P. aeruginosa ATCC 27853": {"tested_on": "P. aeruginosa ATCC 27853", "format": "cell-based", "procedure": "as §1, §2, §3"}, "[11]": {"tested_on": "S. aureus Clinical isolate 18800", "format": "cell-based", "procedure": "as §1, §2, §3"}, "[12]": {"tested_on": "P. aeruginosa Clinical isolate 23.1", "format": "cell-based", "procedure": "as §1, §2, §3"}, "[13]": {"tested_on": "S. aureus Clinical isolate 1088", "format": "cell-based", "procedure": "as §1, §2, §3"}, "[14]": {"tested_on": "S. aureus Clinical isolate 1090", "format": "cell-based", "procedure": "as §1, §2, §3"}, "[15]": {"tested_on": "E. faecalis Clinical isolate 2374", "format": "cell-based", "procedure": "as §1, §2, §3"}, "[16]": {"tested_on": "S. aureus Clinical isolate 13430", "format": "cell-based", "procedure": "as §1, §2, §3"}, "[17]": {"tested_on": "P. aeruginosa Clinical isolate 62.1", "format": "cell-based", "procedure": "as §1, §2, §3"}, "S. pyogenes AP1": {"tested_on": "S. pyogenes AP1", "format": "cell-based", "procedure": "as §1, §2, §3"}, "S. aureus ATCC 29213": {"tested_on": "S. aureus ATCC 29213", "format": "cell-based", "procedure": "as §1, §2, §3"}, "[18]": {"tested_on": "P. aeruginosa Clinical isolate 15159", "format": "cell-based", "procedure": "as §1, §2, §3"}, "[19]": {"tested_on": "P. aeruginosa Clinical isolate 10.5", "format": "cell-based", "procedure": "as §1, §2, §3"}, "[20]": {"tested_on": "S. aureus Clinical isolate 18319", "format": "cell-based", "procedure": "as §1, §2, §3"}, "[21]": {"tested_on": "E. coli Clinical isolate 49.1", "format": "cell-based", "procedure": "as §1, §2, §3"}, "E. coli ATCC 25922 [22]": {"tested_on": "E. coli ATCC 25922", "assay": "Viable count assay", "format": "cell-based", "conditions": "E. coli ATCC 25922 2×10^6 cfu/ml, 50 µl, 10 mM Tris pH 7.4 with 5 mM glucose, 37°C 2 h; 3 and 6 µM", "experimental": "2×10^6 cfu/ml of bacteria were incubated in 50 µl with proteins and peptides at a concentration of 3 and 6 µM, respectively.\nE. coli ATCC 25922 bacteria were grown to mid-logarithmic phase in Todd-Hewitt (TH) medium. Bacteria were washed and re-suspended in 10 mM Tris, pH 7.4 containing 5 mM glucose. […] Serial dilutions of the incubation mixtures were plated on TH agar, followed by incubation at 37°C overnight and cfu determination."}, "[23]": {"assay": "Liposome leakage assay (carboxyfluorescein release)", "experimental": "(E) Effects of the indicated peptides on liposome leakage. The membrane permeabilizing effect was recorded by measuring fluorescence release of carboxyfluorescein from PA (negatively charged) liposomes. The experiments were performed in 10 mM Tris-buffer, in absence and presence of 0.15 M NaCl. Values represents mean of triplicate samples.\nDry lipid films were prepared by dissolving either dioleoylphosphatidylethanolamine (Avanti Polar Lipids, Alabaster, AL) (70 mol%) and dioleoylphosphatidylglycerol (30 mol%) in chloroform, and then removing the solvent by evaporation under vacuum overnight. Subsequently, buffer solution containing 10 mM Tris, pH 7.4, either with or without additional 150 mM NaCl, was added together with 0.1 M carboxyfluorescein (CF) (Sigma). After hydration, the lipid mixture was subjected to eight freeze-thaw cycles consisting of freezing in liquid nitrogen and heating to 60°C. Unilamellar liposomes with a diameter of about 130 nm (as found with cryo-TEM; results not shown) were generated by multiple extrusions through polycarbonate filters (pore size 100 nm) mounted in a LipoFast miniextruder (Avestin). Untrapped carboxyfluorescein was then removed by filtration through two subsequent Sephadex G-50 columns with the relevant Tris buffer as eluent. […] The CF release was monitored by fluorescence at 520 nm from a liposome dispersion (10 mM lipid in 10 mM Tris pH 7.4). […]"}, "E. coli": {"tested_on": "E. coli", "assay": "Radial diffusion assay (RDA), low-salt conditions", "format": "cell-based", "conditions": "6 µl per well (3.6 µg protein), not digested with neutrophil elastase", "procedure": "Figure 1 Generation of antimicrobial peptides by degradation of prothrombin and thrombin. (A) Degradation of the proteins was performed at 37°C for the indicated time periods. RDA was performed in low-salt conditions using E. coli as test organism. Each 4 mm-diameter well was loaded with 6 µl of the solution (corresponding to 3.6 µg protein). The bar diagrams indicate the diameter of the zones of clearance obtained (in mm). The inset visualizes the results obtained with prothrombin. C, buffer; NE, neutrophil elastase only. LL-37 (100 µM) was included for comparison. (B) Intact prothrombin (PT) and thrombin (T), and cleavage products from the different incubations with neutrophil elastase (NE, indicated above) were analyzed by SDS-PAGE (16.5% Tris-Tricine gel). The gels are overloaded (12 µg) in order to visualize generation of fragments of low molecular masses. Rightmost two lanes show PT and T proteins at 2 µg.\nFigure 2 Activities of peptides derived from prothrombin. (A) Sequence of prothrombin and overlapping peptides (indicated by numbers). In addition to the regular overlapping peptides, peptide regions of high net charge, and/or content of predicted helical regions (Agadir; http://www.embl-heidelberg.de/Services/serrano/agadir/agadir-start.html) were selected. […] (B) Overlapping peptides of prothrombin were analyzed for antimicrobial activities against E. coli. […]"}},
  "note": "Where a SMILES comes first, the peptide text is derived from it.",
  "data": [
    {"compound": "CC[C@H](C)[C@H](N)C(=O)N[C@@H](CC(C)C)C(=O)N[C@@H](CCCNC(=N)N)C(=O)N[C@@H](Cc1c[nH]c2ccccc12)C(=O)N1CCC[C@H]1C(=O)N[C@@H](Cc1c[nH]c2ccccc12)C(=O)N[C@@H](Cc1c[nH]c2ccccc12)C(=O)N1CCC[C@H]1C(=O)N[C@@H](Cc1c[nH]c2ccccc12)C(=O)N[C@@H](CCCNC(=N)N)C(=O)N[C@@H](CCCNC(=N)N)C(=O)N[C@@H](CCCCN)C(N)=O", "note": "[Omiganan] (H-ILRWPWWPWRRK-NH2)", "values": [
      {"measurement": "MIC", "setting": "[1]", "value": ">160", "unit": "µM"},
      {"measurement": "MIC", "setting": "[2]", "value": 40, "unit": "µM"},
      {"measurement": "MIC", "setting": "[3]", "value": 20, "unit": "µM"},
      {"measurement": "MIC", "setting": "E. coli ATCC 25922 [4]", "value": 20, "unit": "µM"},
      {"measurement": "MIC", "setting": "[5]", "value": 5, "unit": "µM"},
      {"measurement": "MIC", "setting": "[6]", "value": 80, "unit": "µM"},
      {"measurement": "MIC", "setting": "[7]", "value": 20, "unit": "µM"},
      {"measurement": "MIC", "setting": "[8]", "value": 20, "unit": "µM"},
      {"measurement": "MIC", "setting": "[9]", "value": 10, "unit": "µM"},
      {"measurement": "MIC", "setting": "[10]", "value": 20, "unit": "µM"},
      {"measurement": "MIC", "setting": "S. aureus FDA 486", "value": 20, "unit": "µM"},
      {"measurement": "MIC", "setting": "P. aeruginosa ATCC 27853", "value": 160, "unit": "µM"},
      {"measurement": "MIC", "setting": "[11]", "value": 2.5, "unit": "µM"},
      {"measurement": "MIC", "setting": "[12]", "value": 40, "unit": "µM"},
      {"measurement": "MIC", "setting": "[13]", "value": 20, "unit": "µM"},
      {"measurement": "MIC", "setting": "[14]", "value": 80, "unit": "µM"},
      {"measurement": "MIC", "setting": "[15]", "value": 160, "unit": "µM"},
      {"measurement": "MIC", "setting": "[16]", "value": 10, "unit": "µM"},
      {"measurement": "MIC", "setting": "[17]", "value": 20, "unit": "µM"},
      {"measurement": "MIC", "setting": "S. pyogenes AP1", "value": 5, "unit": "µM"},
      {"measurement": "MIC", "setting": "S. aureus ATCC 29213", "value": 10, "unit": "µM"},
      {"measurement": "MIC", "setting": "[18]", "value": 20, "unit": "µM"},
      {"measurement": "MIC", "setting": "[19]", "value": 40, "unit": "µM"},
      {"measurement": "MIC", "setting": "[20]", "value": 20, "unit": "µM"},
      {"measurement": "MIC", "setting": "[21]", "value": 10, "unit": "µM"}
    ]},
    {"compound": "VFRLKKWIQKVIDQFGE [VFR17]", "values": [
      {"measurement": "antibacterial activity in viable count assay", "setting": "E. coli ATCC 25922 [22]", "value": "significant antibacterial activity"},
      {"measurement": "leakage of liposomes (carboxyfluorescein release)", "setting": "[23]; negatively charged liposomes, 10 mM Tris pH 7.4, absence and presence of 0.15 M NaCl, triplicate", "value": "induced leakage of liposomes"},
      {"measurement": "time to reach ∼80% of the maximum leakage", "setting": "[23]; peptide at 1 µM, data not shown", "value": "≤ 200", "unit": "s"}
    ]},
    {"compound": "thrombin", "values": [
      {"measurement": "antimicrobial activity in RDA, intact proteins", "setting": "E. coli", "value": "inactive"}
    ]}
  ]
}
